Results reported in article PMC11044151, “Development of Half-Sandwich Ru, Os, Rh, and Ir Complexes Bearing the Pyridine-2-ylmethanimine Bidentate Ligand Derived from 7-Chloroquinazolin-4(3H)-one with Enhanced Antiproliferative Activity” (ACS Omega, 2024).
Read-outs that look alike come from different tables or passages of the source.

Assays:
[1] = tested on: HCT116; assay: cells; details: for IC50: read-out: IC50 HCT116, exposure time 72 h, n = 3, 95% CI given; for activity factor IC50(1)/IC50(3a–4d), HCT116: vs corresponding amine (R)-1 or (S)-1, 72 h
Outline: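 Cells seeded at 10^4 per well overnight, then exposed to compounds (0.1% v/v DMSO final) for 70 h. Viability by neutral red uptake: 1 mM dye for 2 h, acid-ethanol extraction, A540. IC50 and IC90 from five-parameter logistic regression.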

[2] = Stability study in the presence of L-cysteine (UV-vis, HPLC-MS); assay type: physicochemical; details: 20 μM complex, 0.2 mM L-cysteine in water, 0.5 vol % DMSO, followed over 2 h
From the text: For biological studies, compounds are commonly administered as dimethyl sulfoxide (DMSO) solution to cells cultured in a specific medium such as Dulbecco’s modified Eagle’s medium (DMEM). DMEM consists of numerous organic compounds which may act as ligands for organometallics. Therefore, it is important to know how the compounds behave in such conditions. The two most prominent components of DMEM which may coordinate to half-sandwich complexes are L-cysteine and L-histidine. Both of those amino acids are present in DMEM at 0.2 mM concentration, so we studied how the complexes interact with them using UV–vis spectroscopy and HPLC-MS analysis. The DMSO solutions of complexes were added to the aqueous solution of L-cysteine or L-histidine to achieve a complex concentration of 20 μM while keeping the DMSO concentration at 0.5 vol %. […] HPLC-MS analysis confirmed the formation of an additional peak at τ = 0.95 min with m/z 714 assigned to [M-Cl-PF6 + HCOOH]^+; additionally, the intensity of peaks corresponding to 3c is lower (Figure S26). […] The intensity of absorbance peaks at λ = 287 and λ = 372 nm in the presence of cysteine is decreasing, while the intensity of peaks at λ = 304 and λ = 318 nm is almost intact.
The stability of 3a–d was studied in the presence of L-cysteine or L-histidine. 3a–d were dissolved in DMSO and added to 0.2 mM aqueous solution of L-cysteine or L-histidine to achieve the complex concentration of 20 μM while keeping the DMSO concentration at 0.5 vol %. UV–vis spectra were recorded over 2 h with 10 min intervals.

[3] = tested on: SW620C; assay: Neutral red uptake antiproliferative assay, MDR line SW620C; assay type: cell-based, human; details: for IC50: exposure time 72 h, n = 3, ABCG2-overexpressing MDR line; for activity factor IC50(1)/IC50(3a–4d), SW620C: vs corresponding amine (R)-1 or (S)-1, 72 h
Outline: (§1)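 SW620 MDR panel; ABCG2 high in SW620C and SW620Mito, ABCC1 in SW620M, ABCB1 in SW620D. Neutral red uptake assay; data normalised to control (%).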

[4] = tested on: A549; assay: Neutral red uptake antiproliferative assay, A549; details: for IC50: read-out: IC50 A549, exposure time 72 h, n = 3, 95% CI given; for activity factor IC50(1)/IC50(3a–4d), A549: vs corresponding amine (R)-1 or (S)-1, 72 h
Outline: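 Human cancer lines seeded at 10^4 cells/well overnight, then treated 70 h with compounds in 0.1% DMSO in DMEM with 10% FBS at 37 °C, 5% CO2. Viability by neutral red uptake (1 mM, 2 h), absorbance 540 nm; IC50 and IC90 from five-parameter logistic fit.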

[5] = tested on: SW620; assay: Neutral red uptake antiproliferative assay, SW620; assay type: cell-based, human; details: for IC50: exposure time 72 h, n = 3, 95% CI given; for activity factor IC50(1)/IC50(3a–4d), SW620: vs corresponding amine (R)-1 or (S)-1, 72 h
Outline: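 Following overnight attachment, cultures received compound for 70 h, then 1 mM neutral red for 2 h, an ice-cold PBS wash and acidified-ethanol extraction before reading at 540 nm. Medium was glucose-rich DMEM plus GlutaMax, HEPES and 10% serum; IC50 and IC90 were computed from five-parameter logistic curves.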

[6] = tested on: SW620Mito; assay: Neutral red uptake antiproliferative assay, MDR line SW620Mito; assay type: cell-based, human; details: for IC50: exposure time 72 h, n = 3, ABCG2-overexpressing MDR line; for activity factor IC50(1)/IC50(3a–4d), SW620Mito: vs corresponding amine (R)-1 or (S)-1, 72 h
Outline: as §1

[7] = tested on: SW620M; assay: Neutral red uptake antiproliferative assay, MDR line SW620M; assay type: cell-based, human; details: for IC50: exposure time 72 h, n = 3, ABCC1-overexpressing MDR line; for activity factor IC50(1)/IC50(3a–4d), SW620M: vs corresponding amine (R)-1 or (S)-1, 72 h
Outline: as §1

SMILES	IC50 [1] [nM]	activity factor IC50(1)/IC50(3a–4d), HCT116 [1]	reaction with L-cysteine (stability) [2]	IC50 [3] [nM]	activity factor IC50(1)/IC50(3a–4d), SW620C [3]	IC50 [4] [nM]	activity factor IC50(1)/IC50(3a–4d), A549 [4]	IC50 [5] [nM]	activity factor IC50(1)/IC50(3a–4d), SW620 [5]	IC50 [6] [nM]	activity factor IC50(1)/IC50(3a–4d), SW620Mito [6]	IC50 [7] [nM]	activity factor IC50(1)/IC50(3a–4d), SW620M [7]	increased cytotoxicity vs corresponding amine 1, A549 [4] [fold]	increased cytotoxicity vs corresponding amine 1, A549 ([4]; rounded value) [fold]	higher cytotoxicity than corresponding amine 1, SW620C ([3]; rounded value) [fold]
CC(C)[C@@H](N=Cc1ccccn1)c1nc2cc(Cl)ccc2c(=O)n1Cc1ccccc1.Cc1ccc(C(C)C)cc1.F[P-](F)(F)(F)(F)F.[Cl-].[Ru+2] [Compound 3a, [(cym)Ru((R)-2)Cl]PF6]	2880	(0.120)	neither ruthenium 3a nor the osmium complex 3b reacts with those amino acids within 2 h	4380	(0.165)	2450	(0.902)	1220	(0.079)	4330	(0.060)	3450	(0.070)			
CC(C)[C@@H](N=Cc1ccccn1)c1nc2cc(Cl)ccc2c(=O)n1Cc1ccccc1.Cc1ccc(C(C)C)cc1.F[P-](F)(F)(F)(F)F.[Cl-].[Os+2] [Compound 3b, [(cym)Os((R)-2)Cl]PF6]	424	(0.816)	neither ruthenium 3a nor the osmium complex 3b reacts with those amino acids within 2 h	1170	(0.616)	1040	(2.12)	556	(0.173)	748	(0.349)	591	(0.408)	2		
CC(C)[C@@H](N=Cc1ccccn1)c1nc2cc(Cl)ccc2c(=O)n1Cc1ccccc1.Cc1c(C)c(C)[c-](C)c1C.F[P-](F)(F)(F)(F)F.[Cl-].[Rh+3] [Compound 3c, [(Cp*)Rh((R)-2)Cl]PF6]	173	(2.00)	slowly reacts with L-cysteine	592	(1.22)	1160	(1.90)	152	(0.632)	524	(0.498)	1180	(0.204)		2	
CC(C)[C@@H](N=Cc1ccccn1)c1nc2cc(Cl)ccc2c(=O)n1Cc1ccccc1.Cc1c(C)c(C)[c-](C)c1C.F[P-](F)(F)(F)(F)F.[Cl-].[Ir+3] [Compound 3d, [(Cp*)Ir((R)-2)Cl]PF6]	476	(0.727)	reacts with both L-cysteine and L-histidine (Figure 6) in 40 min	335	(2.15)	1130	(1.96)	198	(0.485)	268	(0.974)	247	(0.976)		2	2.2
